Experimental data taken from US20240270762A1, “PENICILLIN-BINDING PROTEIN INHIBITORS” (priority 2021, published 2024).
≈ marks a conversion by molar mass, not a printed value.

Columns and labels:
[1] = target: T1, PBP2 from Neisseria gonorrhoeae (FA19) (Neisseria gonorrhoeae, UniProt P08149); assay: Bocillin-FL fluorescence polarization competition binding, N. gonorrhoeae PBP2; settings: fluorescence polarization competition binding assay using Bocillin-FL, read-out: N. gonorrhoeae PBP2 Potency
T1 construct: made in house
Method in brief: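 Fluorescence polarization competition with 0.1 μM Bocillin-FL (fluorescent penicillin V) against 0.25 μM N. gonorrhoeae FA19 PBP2 in 50 mM Hepes pH 8.0, 300 mM NaCl, 10% glycerol. Boronic acid inhibitors were preincubated with PBP, then Bocillin-FL was added and FP read (490/520 nm) up to 60 min. EC50 is the concentration halving PBP-bound Bocillin-FL.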

E. coli ATCC 25922 = assay: microbe, parasite or virus in culture; type: cell-based; settings: Escherichia coli, ATCC25922, read-out: MIC E. coli 25922
E. coli 901C = assay: microbe, parasite or virus in culture; type: cell-based; settings: Escherichia coli, read-out: MIC E. coli 901C
K. pneumoniae SI-117 = assay: microbe, parasite or virus in culture; type: cell-based; settings: Klebsiella pneumoniae, SI117, read-out: MIC K. pneumoniae SI-117
A. baumannii ATCC 19606 = assay: microbe, parasite or virus in culture; type: cell-based; settings: Acinetobacter baumannii, ATCC19606, read-out: MIC, A. baumannii ATCC 19606
P. aeruginosa ATCC 35151 = assay: microbe, parasite or virus in culture; type: cell-based; settings: Pseudomonas aeruginosa, ATCC35151, read-out: MIC P. aeruginosa ATCC 35151
[2] = test system: P. aeruginosa (ΔmexAB-oprM); assay: Broth microdilution MIC in CAMHB; type: cell-based; settings: Pseudomonas aeruginosa; read-out: MIC P. aeruginosa ΔmexAB-oprM
N. gonorrhoeae WHO G = assay: Liquid broth MIC in Fastidious broth; settings: Neisseria gonorrhoeae, read-out: Minimum Inhibitory Concentration (MIC), N. gonorrhoeae WHO G
N. gonorrhoeae WHO L = assay: Liquid broth MIC in Fastidious broth; settings: Neisseria gonorrhoeae, read-out: Minimum Inhibitory Concentration (MIC), N. gonorrhoeae WHO L
Procedure: Liquid broth-based assays were used for antibacterial testing of PBP inhibitors in Neisseria gonorrhoeae. Briefly, cryo-preserved bacterial cultures of clinical strains were streaked for isolation on Chocolate Agar (72 g/L (2×) GC Agar Base (BD #228950) and 2% (2×) Hemoglobin was autoclaved at 121° C. for 20 minutes to sterilize. Once cooled to ˜50° C. the 2×GC Agar Base and 2× Hemoglobin solutions are combined and 1% IsoVitaleX Enrichment (BD #211876) was added to the solution). Strains were incubated at 36° C. and 5% CO2 to allow growth of colonies, 24 hours before inoculum preparation. 2-fold serial dilutions of test compounds were conducted in a 96 well plate with a final volume of 75 μL per well at 2-fold the final desired concentration in Fastidious broth (Remel #R07664). For preparation of assay inoculum, a direct suspension was prepared by aseptically swabbing 10-15 colonies from agar plates into culture tubes containing 2 mL of fresh sterile saline. After the dilution plates were set up, direct suspensions were then diluted in a cuvette containing sterile saline and the optical density was measured at 600 nm. Inocula were diluted such that 75 μL of this culture in Fastidious broth results in a starting bacterial concentration of 5×10^5 CFU/mL when added to the dilution plates. The plates were incubated for ˜24 hours at 36° C. and 5% CO2.

N. gonorrhoeae WHO K = assay: Liquid broth MIC in Fastidious broth; settings: Neisseria gonorrhoeae, read-out: Minimum Inhibitory Concentration (MIC), N. gonorrhoeae WHO K
N. gonorrhoeae WHO X = assay: Liquid broth MIC in Fastidious broth; settings: Neisseria gonorrhoeae, read-out: Minimum Inhibitory Concentration (MIC), N. gonorrhoeae WHO X
N. gonorrhoeae WHO Q = assay: Liquid broth MIC in Fastidious broth; settings: Neisseria gonorrhoeae, read-out: Minimum Inhibitory Concentration (MIC), N. gonorrhoeae WHO Q
N. gonorrhoeae CDC-0197 = assay: Liquid broth MIC in Fastidious broth; settings: Neisseria gonorrhoeae, CDC0197, read-out: Minimum Inhibitory Concentration (MIC), N. gonorrhoeae CDC-0197
Procedure: ATCC 49226, FA1090, MS11, WHO G, WHO L, and WHO M produce wild type or wild-type like PBP2. WHO K, WHO X, WHO Z, WHO Q, and CDC-0197 produce mosaic PBP2. Liquid broth-based assays were used for antibacterial testing of PBP inhibitors in Neisseria gonorrhoeae. Briefly, cryo-preserved bacterial cultures of clinical strains were streaked for isolation on Chocolate Agar (72 g/L (2×) GC Agar Base (BD #228950) and 2% (2×) Hemoglobin was autoclaved at 121° C. for 20 minutes to sterilize. Once cooled to ˜50° C. the 2×GC Agar Base and 2× Hemoglobin solutions are combined and 1% IsoVitaleX Enrichment (BD #211876) was added to the solution). Strains were incubated at 36° C. and 5% CO2 to allow growth of colonies, 24 hours before inoculum preparation. 2-fold serial dilutions of test compounds were conducted in a 96 well plate with a final volume of 75 μL per well at 2-fold the final desired concentration in Fastidious broth (Remel #R07664). For preparation of assay inoculum, a direct suspension was prepared by aseptically swabbing 10-15 colonies from agar plates into culture tubes containing 2 mL of fresh sterile saline. After the dilution plates were set up, direct suspensions were then diluted in a cuvette containing sterile saline and the optical density was measured at 600 nm. Inocula were diluted such that 75 μL of this culture in Fastidious broth results in a starting bacterial concentration of 5×10^5 CFU/mL when added to the dilution plates. The plates were incubated for ˜24 hours at 36° C. and 5% CO2.

T1 sequence (P08149 whole entry): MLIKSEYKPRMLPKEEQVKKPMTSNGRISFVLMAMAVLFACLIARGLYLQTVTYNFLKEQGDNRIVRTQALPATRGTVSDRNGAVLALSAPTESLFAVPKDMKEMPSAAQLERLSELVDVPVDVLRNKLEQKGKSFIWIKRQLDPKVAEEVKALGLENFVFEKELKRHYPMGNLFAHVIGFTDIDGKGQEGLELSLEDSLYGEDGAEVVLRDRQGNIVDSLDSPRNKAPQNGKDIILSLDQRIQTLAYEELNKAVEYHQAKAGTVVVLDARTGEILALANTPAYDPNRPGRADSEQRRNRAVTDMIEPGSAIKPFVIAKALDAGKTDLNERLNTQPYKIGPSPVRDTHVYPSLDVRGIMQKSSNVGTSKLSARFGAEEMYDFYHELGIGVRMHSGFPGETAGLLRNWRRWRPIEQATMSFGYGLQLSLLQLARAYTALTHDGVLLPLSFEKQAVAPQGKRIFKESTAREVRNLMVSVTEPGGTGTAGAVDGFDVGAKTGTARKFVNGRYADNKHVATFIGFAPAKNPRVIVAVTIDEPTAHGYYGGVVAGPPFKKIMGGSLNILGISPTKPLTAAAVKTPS

| SMILES | EC50 [1] [µM] | MIC (E. coli ATCC 25922) [µg/mL] | MIC (E. coli 901C) [µg/mL] | MIC (K. pneumoniae SI-117) [µg/mL] | MIC (A. baumannii ATCC 19606) [µg/mL] | MIC (P. aeruginosa ATCC 35151) [µg/mL] | MIC [2] [µg/mL] | MIC (N. gonorrhoeae WHO G) [µg/mL] | MIC (N. gonorrhoeae WHO L) [µg/mL] | MIC (N. gonorrhoeae WHO K) [µg/mL] | MIC (N. gonorrhoeae WHO X) [µg/mL] | MIC (N. gonorrhoeae WHO Q) [µg/mL] | MIC (N. gonorrhoeae CDC-0197) [µg/mL] |
| --- | --- | --- | --- | --- | --- | --- | --- | --- | --- | --- | --- | --- | --- |
| O=C(O)c1cccc2c1OB(O)[C@@H](NC(=O)[C@H](NC(=O)N1CCCCC1=O)c1ccc(P(=O)(O)O)cc1)C2 [Example 37, (R)-2-hydroxy-3-((R)-2-(2-oxopiperidine-1-carboxamido)-2-(4-phosphonophenyl)acetamido)-3,4-dihydro-2H-benzo[e][1,2]oxaborinine-8-carboxylic acid] | < 10 | > 128 | < 1 | > 128 | > 128 | < 1 | 8 to 16 (≈ 14.7 to 29.3 µM) | < 1 | 16 to 32 (≈ 29.3 to 58.7 µM) | 4 to 8 (≈ 7.34 to 14.7 µM) | 16 to 32 (≈ 29.3 to 58.7 µM) | 1 to 2 (≈ 1.83 to 3.67 µM) | 1 to 2 (≈ 1.83 to 3.67 µM) |
| Cn1cccc(C(=O)N[C@@H](C(=O)N[C@H]2Cc3cccc(C(=O)O)c3OB2O)c2ccc(P(=O)(O)O)cc2)c1=O (single isomer, unassigned) [Example 182] | < 10 | > 128 | 2 to 4 (≈ 3.6 to 7.2 µM) | > 128 | > 128 | < 1 | 8 to 16 (≈ 14.4 to 28.8 µM) | < 1 | 16 to 32 (≈ 28.8 to 57.6 µM) | 4 to 8 (≈ 7.2 to 14.4 µM) | 16 to 32 (≈ 28.8 to 57.6 µM) | 1 to 2 (≈ 1.8 to 3.6 µM) | 1 to 2 (≈ 1.8 to 3.6 µM) |
| CS(=O)(=O)N1CCN(C(=O)NC(C(=O)N[C@H]2Cc3cccc(C(=O)O)c3OB2O)c2ccc(P(=O)(O)O)c(Cl)c2)C1=O (stereo partly drawn) [Example 11, (3R)-3-(2-(3-chloro-4-phosphonophenyl)-2-(3-(methylsulfonyl)-2-oxoimidazolidine-1-carboxamido)acetamido)-2-hydroxy-3,4-dihydro-2H-benzo[e][1,2]oxaborinine-8-carboxylic acid] | < 10 | 32 to 64 (≈ 49.6 to 99.3 µM) | < 1 | > 128 | > 128 | 8 to 16 (≈ 12.4 to 24.8 µM) | 32 to 64 (≈ 49.6 to 99.3 µM) | < 1 | 1 to 2 (≈ 1.55 to 3.1 µM) | < 1 | 1 to 2 (≈ 1.55 to 3.1 µM) | < 1 | < 1 |
| O=C(N[C@H](C(=O)N[C@H]1Cc2cccc(C(=O)O)c2OB1O)c1ccc(P(=O)(O)O)cc1)c1ccc(C(F)(F)F)cn1 (single isomer, unassigned) [Example 192] | < 10 | > 128 | < 1 | > 128 | > 128 | 8 to 16 (≈ 13.5 to 27 µM) | 32 to 64 (≈ 53.9 to 108 µM) | 1 to 2 (≈ 1.69 to 3.37 µM) | 4 to 8 (≈ 6.74 to 13.5 µM) | 4 to 8 (≈ 6.74 to 13.5 µM) | 16 to 32 (≈ 27 to 53.9 µM) | 1 to 2 (≈ 1.69 to 3.37 µM) | 1 to 2 (≈ 1.69 to 3.37 µM) |
| CC(=O)NC(C(=O)N[C@H]1Cc2cccc(C(=O)O)c2OB1O)c1ccc(P(=O)(O)O)cc1 (stereo partly drawn) [Example 26, (3R)-3-(2-acetamido-2-(4-phosphonophenyl)acetamido)-2-hydroxy-3,4-dihydro-2H-benzo[e][1,2]oxaborinine-8-carboxylic acid] | 10 to 50 | > 128 | 8 to 16 (≈ 17.3 to 34.6 µM) | > 128 | > 128 | 8 to 16 (≈ 17.3 to 34.6 µM) | > 128 | 16 to 32 (≈ 34.6 to 69.2 µM) | 16 to 32 (≈ 34.6 to 69.2 µM) | 16 to 32 (≈ 34.6 to 69.2 µM) | 16 to 32 (≈ 34.6 to 69.2 µM) | 16 to 32 (≈ 34.6 to 69.2 µM) | 16 to 32 (≈ 34.6 to 69.2 µM) |
| CS(=O)(=O)N1CCN(C(=O)NC(C(=O)N[C@H]2Cc3cccc(C(=O)O)c3OB2O)c2ccc(P(=O)(O)O)c(F)c2O)C1=O (stereo partly drawn) [Example 48, (3R)-3-(2-(3-fluoro-2-hydroxy-4-phosphonophenyl)-2-(3-(methylsulfonyl)-2-oxoimidazolidine-1-carboxamido)acetamido)-2-hydroxy-3,4-dihydro-2H-benzo[e][1,2]oxaborinine-8-carboxylic acid] | < 10 | > 128 | < 1 | > 128 | > 128 | 8 to 16 (≈ 12.4 to 24.8 µM) | > 128 | < 1 | 4 to 8 (≈ 6.21 to 12.4 µM) | 4 to 8 (≈ 6.21 to 12.4 µM) | 16 to 32 (≈ 24.8 to 49.7 µM) | 1 to 2 (≈ 1.55 to 3.1 µM) | 1 to 2 (≈ 1.55 to 3.1 µM) |
| CCN1CCN(C(=O)NC(C(=O)N[C@H]2Cc3cccc(C(=O)O)c3OB2O)c2cccc(CP(=O)(O)O)c2)C(=O)C1=O (stereo partly drawn) [Example 22, (3R)-3-(2-(4-ethyl-2,3-dioxopiperazine-1-carboxamido)-2-(3-(phosphonomethyl)phenyl)acetamido)-2-hydroxy-3,4-dihydro-2H-benzo[e][1,2]oxaborinine-8-carboxylic acid] | < 10 | 32 to 64 (≈ 53.1 to 106 µM) | < 1 | > 128 | 32 to 64 (≈ 53.1 to 106 µM) | < 1 | 8 to 16 (≈ 13.3 to 26.6 µM) | < 1 | 16 to 32 (≈ 26.6 to 53.1 µM) | 4 to 8 (≈ 6.64 to 13.3 µM) | 4 to 8 (≈ 6.64 to 13.3 µM) | 1 to 2 (≈ 1.66 to 3.32 µM) | 1 to 2 (≈ 1.66 to 3.32 µM) |
| CS(=O)(=O)N1CCN(C(=O)N[C@@H](C(=O)N[C@H]2Cc3cccc(C(=O)O)c3OB2O)c2ccc(P(=O)(O)O)c(F)c2)C1=O (single isomer, unassigned) [Example 15] | < 10 | 32 to 64 (≈ 50.9 to 102 µM) | < 1 | > 128 | 32 to 64 (≈ 50.9 to 102 µM) | 2 to 4 (≈ 3.18 to 6.37 µM) | 32 to 64 (≈ 50.9 to 102 µM) | < 1 | < 1 | < 1 | < 1 | < 1 | < 1 |
| CS(=O)(=O)N1CCC[C@H]1C(=O)N[C@H](C(=O)N[C@H]1Cc2cccc(C(=O)O)c2OB1O)c1ccc(P(=O)(O)O)cc1 [Example 43, (R)-2-hydroxy-3-((S)-2-((S)-1-(methylsulfonyl)pyrrolidine-2-carboxamido)-2-(4-phosphonophenyl)acetamido)-3,4-dihydro-2H-benzo[e][1,2]oxaborinine-8-carboxylic acid] | 50 to 250 | > 128 | 8 to 16 (≈ 13.4 to 26.9 µM) | > 128 | > 128 | 8 to 16 (≈ 13.4 to 26.9 µM) | > 128 | 4 to 8 (≈ 6.72 to 13.4 µM) | 16 to 32 (≈ 26.9 to 53.8 µM) | 16 to 32 (≈ 26.9 to 53.8 µM) | 16 to 32 (≈ 26.9 to 53.8 µM) | 4 to 8 (≈ 6.72 to 13.4 µM) | 1 to 2 (≈ 1.68 to 3.36 µM) |
